Assay results taken from patent publication US10273267B2, “Beta-hairpin peptidomimetics as selective elastase inhibitors” (POLYPHOR AG, priority 2013, dated 2019).
*1 amine or outer side, *2 acyl side, *3 side chain or, on linkers, in order; H or OH if unused. Where a SMILES comes first, the peptide text is derived from it. [ ]: non-standard residue; d: D form. The star is where a group is joined. X3 = O=C(CC[C@H](Cc1ccc(O)cc1)N[*:1])[*:2]; Gly(octyl) = CCCCCCCC[C@H](N)C(=O)O; N(CH2CH2COOH)Gly = O=C(O)CCNCC(=O)O; β3hQ = NC(=O)CC[C@H](N)CC(=O)O; AllylGly = C=CC[C@H](N)C(=O)O; β3hK = NCCCC[C@H](N)CC(=O)O; β3hP = O=C(O)C[C@@H]1CCCN1; Octanoyl = CCCCCCCC(=O)*; Dab = NCC[C@H](N)C(=O)O

What was measured:
Type in all cases: biochemical
[1] = biological target: T1, human neutrophil elastase (Homo sapiens, UniProt P08246); test: Inhibition of human neutrophil elastase (hydrolysis of MeOSuc-AAPV-pNA); conditions: substrate MeOSuc-AAPV-pNA 0.3 mM, enzyme 10 nM, 37° C., pH 8; read-out: Human neutrophil elastase (hNE) IC50
T1 construct: purchased Serva Electrophoresis, Germany
T1 sequence (P08246 30-267): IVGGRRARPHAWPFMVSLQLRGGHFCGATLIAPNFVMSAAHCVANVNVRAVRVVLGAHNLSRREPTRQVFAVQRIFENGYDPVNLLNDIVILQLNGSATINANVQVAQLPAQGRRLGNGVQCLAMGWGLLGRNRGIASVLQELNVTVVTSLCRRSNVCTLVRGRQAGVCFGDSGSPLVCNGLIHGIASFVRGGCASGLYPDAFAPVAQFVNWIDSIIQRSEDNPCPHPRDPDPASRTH
Procedure: 2.2 Inhibition of Human Neutrophil Elastase
The ability of the peptides of the invention to inhibit the hydrolysis activity of human neutrophil elastase (Serva Electrophoresis, Germany) using the synthetic tetrapeptidic substrate MeOSuc-AAPV-pNA (Bachem, Switzerland) was determined as follows:
(§1) The above substrate (0.3 mM) and human neutrophil elastase (10 nM) were incubated at 37° C. with serial dilutions of the peptides (1% DMSO final) in assay buffer (50 mM Tris, pH 8, 300 mM NaCl, 0.01% Tween20). The release of pNA was followed by monitoring the change in absorbance at 405 nm for 30 minutes. Control assays with the same assay set-up as above, but without peptide, ran linearly. The dose-response data were fitted to the 4-parameter Hill equation providing the IC50 value using Graphpad (Prism 5).

[2] = biological target: T2, porcine pancreatic elastase (Sus scrofa, UniProt P00772); test: Inhibition of porcine pancreatic elastase (hydrolysis of MeOSuc-AAA-pNA); conditions: for hNE/PPE selectivity: ratio of PPE IC50 to hNE IC50; for IC50: substrate MeOSuc-AAA-pNA 1 mM, enzyme 15 nM, 37° C., pH8, read-out: Porcine pancreatic elastase (PPE) IC50
T2 construct: purchased Sigma, USA
T2 sequence (P00772 27-266): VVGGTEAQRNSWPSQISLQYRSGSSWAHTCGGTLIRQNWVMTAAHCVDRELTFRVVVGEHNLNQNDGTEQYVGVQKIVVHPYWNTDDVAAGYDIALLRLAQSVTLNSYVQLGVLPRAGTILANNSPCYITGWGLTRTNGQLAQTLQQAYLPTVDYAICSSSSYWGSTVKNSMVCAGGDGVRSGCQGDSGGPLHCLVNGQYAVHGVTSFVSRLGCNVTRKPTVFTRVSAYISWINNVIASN
Procedure: 2.3 Inhibition of Porcine Pancreatic Elastase
The ability of the peptides of the invention to inhibit the hydrolysis activity of porcine pancreatic elastase (Sigma, USA) using the synthetic tripeptidic substrate MeOSuc-AAA-pNA (Bachem, Switzerland) was determined as follows:
as §1, with “(1” for “(0.3”, “porcine pancreatic” for “neutrophil”, “(15” for “(10”, “(0.5%” for “(1%”, “pH8, 100” for “pH 8, 300”

[3] = biological target: T3, human proteinase 3 (Homo sapiens, UniProt P24158); test: Inhibition of human proteinase 3 (substrate Boc-Ala-Ala-Nva-SBzl); conditions: for hNE/hPr3 selectivity: ratio of hPr3 IC50 to hNE IC50; for IC50: substrate Boc-Ala-Ala-Nva-SBzl 1 mM, enzyme 10 nM, 37° C., pH7.4, read-out: Human proteinase 3 (hPr3) IC50
T3 construct: purchased Elastin Products Company, USA
T3 sequence (P24158 28-248): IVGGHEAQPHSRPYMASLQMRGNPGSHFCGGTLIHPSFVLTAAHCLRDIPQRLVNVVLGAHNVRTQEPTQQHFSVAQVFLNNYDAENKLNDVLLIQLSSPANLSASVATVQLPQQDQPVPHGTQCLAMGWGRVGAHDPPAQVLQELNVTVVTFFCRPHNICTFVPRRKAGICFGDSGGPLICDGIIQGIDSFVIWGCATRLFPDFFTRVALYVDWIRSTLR
Procedure: 2.4 Inhibition of Human Proteinase 3
The inactivation of human proteinase 3 (Elastin Products Company, USA) by the peptides of the invention using synthetic tripeptidic substrate Boc-Ala-Ala-Nva-SBzl (Elastin Products Company, USA) was determined as follows:
as §1, with “(1 mM), 4,4′-dithiodipyridine (250 μM)” for “(0.3 mM)”, “proteinase 3” for “neutrophil elastase”, “(0.5%” for “(1%”, “pH7.4, 150” for “pH 8, 300”, “reaction process” for “release of pNA”, “340” for “405”

CCCCCCCC[C@@H]1NC(=O)[C@H](CCC(=O)O)NC(=O)[C@@H](CCCCN)NC(=O)[C@H]([C@@H](C)O)NC(=O)[C@H](CCCCN)NC(=O)[C@H](CCC(N)=O)NC(=O)[C@@H]2CCCN2C(=O)[C@@H]2CCCN2C(=O)[C@H]([C@@H](C)CC)NC(=O)[C@H](CO)NC(=O)[C@H](C)NC(=O)[C@H]([C@@H](C)O)NC(=O)[C@H](CCC(=O)O)NC1=O [Example 29, Cyclo(-OctGly-Glu-Thr-Ala-Ser-Ile-Pro-Pro-Gln-Lys-Thr-^DLys-Glu-)] (cyclo([Gly(octyl)]ETASIPPQKT[dK]E))
IC50 [1]: 0.0118 µM | hNE/PPE selectivity [2]: 1085 | IC50 [2]: 12.8 µM | hNE/hPr3 selectivity [3]: 5305 | IC50 [3]: 62.6 µM

CCCCCCCC[C@@H]1NC(=O)[C@@H]2CCCN2C(=O)[C@H]2CCCN2C(=O)[C@H]([C@@H](C)O)NC(=O)C[C@H](CCCCN)NC(=O)[C@H](CCC(N)=O)NC(=O)[C@@H]2CCCN2C(=O)[C@@H]2CCCN2C(=O)[C@H]([C@@H](C)CC)NC(=O)[C@H](CO)NC(=O)[C@H](C)NC(=O)[C@H]([C@@H](C)O)NC(=O)[C@H](CCC(=O)O)NC1=O [Example 37, Cyclo(-OctGly-Glu-Thr-Ala-Ser-Ile-Pro-Pro-Gln-[H-β^3-H Lys-OH]-Thr-^DPro-Pro-)] (cyclo([Gly(octyl)]ETASIPPQ[β3hK]T[dP]P))
IC50 [1]: 0.0415 µM | hNE/PPE selectivity [2]: 212 | IC50 [2]: 8.8 µM | hNE/hPr3 selectivity [3]: 371 | IC50 [3]: 15.4 µM

CCCCCCCC[C@@H]1NC(=O)[C@@H]2CCCN2C(=O)[C@H]2CCCN2C(=O)[C@H]([C@@H](C)O)NC(=O)[C@H](CCCCN)NC(=O)[C@H](CCC(N)=O)NC(=O)CN(CCC(=O)O)C(=O)[C@@H]2CCCN2C(=O)[C@H]([C@@H](C)CC)NC(=O)[C@H](CO)NC(=O)[C@H](C)NC(=O)[C@H]([C@@H](C)O)NC(=O)[C@H](CCC(=O)O)NC1=O [Example 34, Cyclo(-OctGly-Glu-Thr-Ala-Ser-Ile-Pro-Nglu-Gln-Lys-Thr-^DPro-Pro-)] (cyclo([Gly(octyl)]ETASIP[N(CH2CH2COOH)Gly]QKT[dP]P))
IC50 [1]: 0.0303 µM | hNE/PPE selectivity [2]: 512 | IC50 [2]: 15.5 µM | hNE/hPr3 selectivity [3]: 172 | IC50 [3]: 5.2 µM

CCCCCCCC[C@@H]1NC(=O)[C@@H]2CCCN2C(=O)[C@H]2CCCN2C(=O)[C@H]([C@@H](C)O)NC(=O)[C@H](CCCCN)NC(=O)C[C@H](CCC(N)=O)NC(=O)[C@@H]2CCCN2C(=O)[C@@H]2CCCN2C(=O)[C@H]([C@@H](C)CC)NC(=O)[C@H](CO)NC(=O)[C@H](C)NC(=O)[C@H]([C@@H](C)O)NC(=O)[C@H](CCC(=O)O)NC1=O [Example 36, Cyclo(-OctGly-Glu-Thr-Ala-Ser-Ile-Pro-Pro-[H-β^3-HGln-OH]-Lys-Thr-^DPro-Pro-)] (cyclo([Gly(octyl)]ETASIPP[β3hQ]KT[dP]P))
IC50 [1]: 0.0162 µM | hNE/PPE selectivity [2]: 685 | IC50 [2]: 11.1 µM | hNE/hPr3 selectivity [3]: 364 | IC50 [3]: 5.9 µM

CCCCCCCC[C@@H]1NC(=O)[C@@H]2CCCN2C(=O)[C@H]2CCCN2C(=O)[C@H]([C@@H](C)O)NC(=O)[C@H](CCCCN)NC(=O)[C@H](CCC(N)=O)NC(=O)[C@@H]2CCCN2C(=O)CN(CCC(=O)O)C(=O)[C@H]([C@@H](C)CC)NC(=O)[C@H](CO)NC(=O)[C@H](C)NC(=O)[C@H]([C@@H](C)O)NC(=O)[C@H](CCC(=O)O)NC1=O [Example 7, Cyclo(-OctGly-Glu-Thr-Ala-Ser-Ile-Nglu-Pro-Gln-Lys-Thr-^DPro-Pro-)] (cyclo([Gly(octyl)]ETASI[N(CH2CH2COOH)Gly]PQKT[dP]P))
IC50 [1]: 0.0133 µM | hNE/PPE selectivity [2]: 295 | IC50 [2]: 3.92 µM | hNE/hPr3 selectivity [3]: 305 | IC50 [3]: 4.06 µM

CCCCCCCC(=O)NCC[C@@H]1NC(=O)[C@@H]2CCCN2C(=O)[C@H]2CCCN2C(=O)[C@H]([C@@H](C)O)NC(=O)[C@H](CCCCN)NC(=O)[C@H](CCC(N)=O)NC(=O)[C@@H]2CCCN2C(=O)[C@@H]2CCCN2C(=O)[C@H]([C@@H](C)CC)NC(=O)[C@H](CO)NC(=O)[C@H](C)NC(=O)[C@H]([C@@H](C)O)NC(=O)[C@H](CCC(=O)O)NC1=O [Example 15, Cyclo(-Dab(Octanoyl)-Glu-Thr-Ala-Ser-Ile-Pro-Pro-Gln-Lys-Thr-^DPro-Pro-)] (cyclo([Dab](Octanoyl)ETASIPPQKT[dP]P))
IC50 [1]: 0.0191 µM | hNE/PPE selectivity [2]: 4859 | IC50 [2]: 92.8 µM | hNE/hPr3 selectivity [3]: 2366 | IC50 [3]: 45.2 µM

CCCCCCCC[C@@H]1NC(=O)C[C@@H]2CCCN2C(=O)[C@H]2CCCN2C(=O)[C@H]([C@@H](C)O)NC(=O)[C@H](CCCCN)NC(=O)[C@H](CCC(N)=O)NC(=O)[C@@H]2CCCN2C(=O)[C@@H]2CCCN2C(=O)[C@H]([C@@H](C)CC)NC(=O)[C@H](CO)NC(=O)[C@H](C)NC(=O)[C@H]([C@@H](C)O)NC(=O)[C@H](CCC(=O)O)NC1=O [Example 39] (cyclo([Gly(octyl)]ETASIPPQKT[dP][β3hP]))
IC50 [1]: 0.0029 µM | hNE/PPE selectivity [2]: 30310 | IC50 [2]: 87.9 µM | hNE/hPr3 selectivity [3]: 24655 | IC50 [3]: 71.5 µM

CCCCCCCC[C@@H]1NC(=O)[C@H](C(C)C)NC(=O)[C@@H](CO)NC(=O)[C@H]([C@@H](C)O)NC(=O)[C@H](CCCCN)NC(=O)[C@H](CCC(N)=O)NC(=O)[C@@H]2CCCN2C(=O)[C@@H]2CCCN2C(=O)[C@H]([C@@H](C)CC)NC(=O)[C@H](CO)NC(=O)[C@H](C)NC(=O)[C@H]([C@@H](C)O)NC(=O)[C@H](CCC(=O)O)NC1=O [Example 30, Cyclo(-OctGly-Glu-Thr-Ala-Ser-Ile-Pro-Pro-Gln-Lys-Thr-^DSer-Val-)] (cyclo([Gly(octyl)]ETASIPPQKT[dS]V))
IC50 [1]: 0.012 µM | hNE/PPE selectivity [2]: 4267 | IC50 [2]: 51.2 µM | hNE/hPr3 selectivity [3]: 1192 | IC50 [3]: 14.3 µM

CCCCCCCC[C@@H]1NC(=O)[C@@H]2CCCN2C(=O)[C@H]2CCCN2C(=O)CC[C@H](Cc2ccc(O)cc2)NC(=O)[C@H](CCCCN)NC(=O)[C@H](CCC(N)=O)NC(=O)[C@@H]2CCCN2C(=O)[C@@H]2CCCN2C(=O)[C@H]([C@@H](C)CC)NC(=O)[C@H](CO)NC(=O)[C@H](C)NC(=O)[C@H]([C@@H](C)O)NC(=O)[C@H](CCC(=O)O)NC1=O [Example 8, Cyclo(-OctGly-Glu-Thr-Ala-Ser-Ile-Pro-Pro-Gln-Lys-[H-γ^4-DiHTyr-OH]-^DPro-Pro-)] (cyclo([Gly(octyl)]ETASIPPQK[X3][dP]P))
IC50 [1]: 0.0198 µM | hNE/PPE selectivity [2]: 91 | IC50 [2]: 1.81 µM | hNE/hPr3 selectivity [3]: 168 | IC50 [3]: 3.33 µM

C=CC[C@@H]1NC(=O)[C@H]([C@@H](C)O)NC(=O)[C@H](CCC(=O)O)NC(=O)[C@H](CCC(=O)N[C@@H](Cc2ccccc2)C(=O)O)NC(=O)[C@@H]2CCCN2C(=O)[C@H]2CCCN2C(=O)[C@H](Cc2ccc(O)cc2)NC(=O)[C@H](CCCCN)NC(=O)[C@H](CCC(N)=O)NC(=O)[C@@H]2CCCN2C(=O)[C@@H]2CCCN2C(=O)[C@H]([C@@H](C)CC)NC(=O)[C@H](CO)NC1=O [Example 17, Cyclo(-Glu(Phe)-Glu-Thr-AllylGly-Ser-Ile-Pro-Pro-Gln-Lys-Tyr-^DPro-Pro-)] (cyclo(E(Phe)ET[AllylGly]SIPPQKY[dP]P))
IC50 [1]: 0.015 µM | hNE/PPE selectivity [2]: 2080 | IC50 [2]: 31.2 µM | hNE/hPr3 selectivity [3]: 4013 | IC50 [3]: 60.2 µM
